Patent US20250361485A1, “MODIFIED CD4+ T CELLS EXPRESSING IL-37 AND METHODS OF USE THEREOF” (The Regents of the University of Colorado, A Body Corporate, priority 2022, published 2025)

How the values were obtained:
caspase-1 = experiment: FAM-FLICA caspase-1 activation assay in human Treg cells; assay type: cell-based
Description: Purified primary human CD4+ T cells were used for siRNA knockdown of RUNX1, RPTOR, IL37, CREB1, CHK1, NLRP2, NLRP3, NLRP4, ASC, and NLRC4, and CD4+CD25+CD127^dim T cells for siRNA knockdown of FOXP3 and IL37. Cells were purified from healthy donor PBMCs as described above and then placed in culture in complete RPMI 1640 for at least 2 h prior to siRNA transfection via nucleofection using the Amaxa P3 Primary Cell 4D-Nucleofector X Kit L (Lonza) following the manufacturer's instructions. […] Knockdowns were confirmed 24 hours after nucleofection by qRT-PCR or 48 hours later by western blot, and the relative density of the protein bands was determined using FIJI. […]
Purified lymphocytes from either humans or mice were washed with FACS buffer (5% BSA (Sigma-Aldrich) and 1×PBS), and then prepared for surface or intracellular staining, as described (Osborne and Wetzel, 2012). For surface staining, 1 μg or the manufacturer-recommended amounts of fluorescently conjugated antibody specific to the surface marker to be visualized was added to 1×10^6 cells resuspended in 100 μl of FACS buffer for 30 min at 4° C., then washed 2× with FACS buffer prior to being either analyzed or further processed. […] For measuring proliferation, cells were stained with 5-μM CFSE (Molecular Probes, Eugene, OR) prior to cell culture and analyzed using flow cytometry. […]

PAK1/2/3 = PAK1/2/3 inhibition in unstimulated human Treg cells; assay type: cell-based; conditions: 1 μM
Description: Purified lymphocytes from either humans or mice were washed with FACS buffer (5% BSA (Sigma-Aldrich) and 1×PBS), and then prepared for surface or intracellular staining, as described (Osborne and Wetzel, 2012). For surface staining, 1 μg or the manufacturer-recommended amounts of fluorescently conjugated antibody specific to the surface marker to be visualized was added to 1×10^6 cells resuspended in 100 μl of FACS buffer for 30 min at 4° C., then washed 2× with FACS buffer prior to being either analyzed or further processed. For intracellular cytokine staining (ICS), the FOXP3 Cytoperm/Cytofix staining kit (BD Pharmingen, San Diego, CA) was used after cells were stimulated for 24 h on 1 μg/ml anti-CD3-coated plates with soluble 1 μg/ml anti-CD28 antibody or anti-CD3/CD28 conjugated Dynabeads™ (Gibco, Thermo Fisher). For measuring proliferation, cells were stained with 5-μM CFSE (Molecular Probes, Eugene, OR) prior to cell culture and analyzed using flow cytometry. Flow-based measurement of caspase-1 activation was done using the FAM-FLICA® Caspase-1 Assay kit #98 following the manufacturer's instructions (ImmunoChemistry Tech, Bloomington, MN). For flow cytometry experiments using the caspase-1 inhibitor Ac-YVAD-CMK, cells were cultured with 50 μM Ac-YVAD-CMK for 2 h prior to stimulation, 24 h (mouse), and 48 h (human), with anti-CD3/CD28 conjugated Dynabeads™ and then prepared for flow cytometry analyses. For experiments using the PAK1/2/3 inhibitor FRAX597, cells were cultured with 1 μM FRAX597 for either 24 h (flow and qRT-PCR) or 48 h (immunoblotting) and then prepared for analysis. For flow cytometry or qRT-PCR experiments using IL-6 treatment, human and mouse cells were cultured with 20 ng/ml IL-6 (Peprotech) and anti-CD3/CD28 conjugated Dynabeads™ and then prepared for analyses. […] All acquisitions were performed on a Galios® or Galios® 561 cytometer equipped with Kaluza software (Beckman-Coulter, Indianapolis, IN), and all data were analyzed with FlowJo_V10 software (Tree Star, Ashland, OR).

[1] = molecular target: p-SMAD3 S208 (SMAD3 phosphorylated at Ser208), human, endogenous in human Treg cells (human) (UniProt P84022); experiment: flow cytometry read-out in human Treg cells with or without 50 uM Ac-YVAD-CMK (FIG. 15D), presumably flow-based PLA
Sequence of UniProt P84022 (P84022 2-425 limits assumed): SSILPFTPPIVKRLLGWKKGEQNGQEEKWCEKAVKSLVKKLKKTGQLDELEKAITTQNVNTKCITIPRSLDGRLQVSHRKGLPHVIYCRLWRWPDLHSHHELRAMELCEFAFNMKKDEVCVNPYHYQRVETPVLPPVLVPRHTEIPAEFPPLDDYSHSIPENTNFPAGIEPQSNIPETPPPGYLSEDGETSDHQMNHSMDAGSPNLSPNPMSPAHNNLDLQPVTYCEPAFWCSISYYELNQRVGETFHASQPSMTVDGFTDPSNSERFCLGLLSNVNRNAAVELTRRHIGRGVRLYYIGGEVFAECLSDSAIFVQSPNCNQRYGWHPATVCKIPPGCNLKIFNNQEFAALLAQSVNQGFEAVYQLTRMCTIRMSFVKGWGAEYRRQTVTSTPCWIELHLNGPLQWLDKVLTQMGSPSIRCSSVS

## ASC: siRNA against ASC, SEQ ID NO: 1-2 (chain 1 GCUCUUCAGUUUCACACCAUU; chain 2 UGGUGUGAAACUGAAGAGCUU; chemistry not given here)
caspase-1; primary human Treg cells, siRNA silencing
  caspase-1 activation compared to siRNA scramble control: −20.5%

## CCn1c(=O)c(-c2ccc(-c3cncs3)cc2Cl)cc2cnc(Nc3ccc(N4CCN(C)CC4)cc3)nc21 [FRAX 597]
caspase-1; human Treg cells, 1 μM, 24 hrs
  reduction in caspase-1 activation: 44%
PAK1/2/3; 24 hrs
  IL-37 localization: shift in IL-37 localization from the nucleus to the cytoplasm
  p-NLRC4 (S533), fold decrease: 1.9 fold
PAK1/2/3; 24 hrs (gene), 48 hrs (protein)
  FOXP3 gene and protein expression: decrease

## Interleukin-37 (IL-37), human, endogenous in human Treg cells (from UniProt Q9NZH6 1-218) (ligand)
[1]
  decrease of the interaction after caspase-1 inhibitor Ac-YVAD-CMK, against untreated Treg cells: 36.5%
